Laboratory results taken from US20160041146A1 (priority 2014, published 2016).
Where two headings read alike, the source gives them in different places.

Assay type: in vivo, human
Details: for Urine concentration (median): 50 subjects; for μA, population mean of ln(PMET/SMET), ratio of primary (parent) to secondary metabolite concentration in urine: large batch of historical UDT patient data (for quetiapine: model A), the σA is the standard deviation
Source text: Determining the amount of a drug in fluid of the subject may be accomplished by use of any method known to those skilled in the art. Non-limiting examples for determining the amount of a drug in fluid of a subject include fluorescence polarization immunoassay (“FPIA,” Abbott Diagnostics), mass spectrometry (MS), gas chromatography-mass spectrometry (GC-MS-MS), liquid chromatography-mass spectrometry (LC-MS-MS), and the like. In one embodiment, LC-MS-MS methods known to those skilled in the art are used to determine a raw level, amount or concentration of a drug in urine of the subject. In one embodiment, a raw level or concentration of a drug in urine of a subject is measured and reported as a ratio, percent, or in relationship to the amount of fluid. The amount of fluid may be expressed as a unit volume, for example, in L, mL, μL, pL, ounce, etc. In one embodiment, the raw amount of a drug in urine of a subject may be expressed as an absolute level or value, for example, in g, mg, μg, ng, pg, etc.
In an embodiment, the raw primary metabolite and secondary metabolite concentrations measured in urine of the subject are transformed and normalized (hereafter “Equation 3”): […]
where ln is the natural log, PMET is the concentration of the primary metabolite also referred to as the parent drug in […]; and SMET is the concentration of the secondary metabolite in […]. The value is then transformed into its corresponding value on the standard normal (e.g., Gaussian) distribution using (hereafter “Equation 4): […]
where NORMSTD(RATIO) is the standardized normal value (also referred to herein as the Z-score) and μA and σA are the mean and the standard deviation respectively of the population used to construct the model described in Equation 3. The resulting mean and standard deviation of the standardized normal distribution, NORMSTD(RATIO), are “0” and “1” respectively.
The Data Sets used to establish the ratio models were cleaned as detailed below and the resulting information used only considered patients who tested positive for the primary and secondary metabolite of interest and were prescribed the drug of interest. Furthermore, to ensure integrity of the data only patients with qualifying sample validity test information (sample pH and sample creatinine level), as described in detail in other embodiments were included in the model. […] Consequently, all patients were included in the model regardless of whether their illicit drug test was positive or negative.
Once the patient(s) meet acceptable Sample Validity test results and non-zero values, expected values based on the model can be calculated using the models described below (Equation 3 and Equation 4 detailed in other embodiments).

[1] = Oxycodone model population, approximately 48,800 patient results over one year, average daily dosage 36 mg
[2] = patient validity data set for Oxycodone model, average oxycodone dosage 24 mg
[3] = patient validity data set for Quetiapine models, average quetiapine dosage 299 mg
[4] = patient validity data set for Alprazolam model, average alprazolam dosage 2.26 mg

Structure (SMILES): CN1CC[C@]23c4c5ccc(O)c4O[C@H]2C(=O)CC[C@@]3(O)[C@H]1C5 [oxymorphone]
- median urine drug concentration [1]: 1248 ng/mL
- Urine concentration (median) [2]: 1579 ng/mL

Structure (SMILES): OCCOCCN1CCN(C2=Nc3ccc(O)cc3Sc3ccccc32)CC1 [7-hydroxyquetiapine]
- median urine drug concentration (Alprazolam model population, approximately 256,000 patient results over nine years, average daily dosage 3 mg): 329 ng/mL
- median urine drug concentration (Quetiapine model A population, approximately 5,455 patient results collected over three years, average daily dosage 229 mg): 95 ng/mL
- median urine drug concentration (Quetiapine model B population, approximately 236 patient results, six month clinical trial, average daily dosage 310 mg): 55 ng/mL
- Urine concentration (median) [3]: 62 ng/mL

Structure (SMILES): OCCOCCN1CCN(C2=Nc3ccccc3Sc3ccccc32)CC1 [quetiapine]
- Urine concentration (median) [3]: 69 ng/mL

Structure (SMILES): COc1ccc2c3c1O[C@H]1C(=O)CC[C@H]4[C@@H](C2)N(C)CC[C@]314 [hydrocodone]
- median urine drug concentration (Hydrocodone model population, approximately 84,000 patient results over one year, average daily dosage 32 mg): 1395 ng/mL
- μA, population mean of ln(PMET/SMET), ratio of primary (parent) to secondary metabolite concentration in urine: 0.996
- Urine concentration (median) (patient validity data set for Hydrocodone model, average hydrocodone dosage 26 mg): 1428 ng/mL

Structure (SMILES): OCc1nnc2n1-c1ccc(Cl)cc1C(c1ccccc1)=NC2 [alpha-hydroxyalprazolam]
- Urine concentration (median) [4]: 265 ng/mL

Structure (SMILES): COc1ccc2c3c1O[C@H]1C(=O)CC[C@@]4(O)[C@@H](C2)N(C)CC[C@]314 [oxycodone]
- median urine drug concentration [1]: 1421 ng/mL
- μA, population mean of ln(PMET/SMET), ratio of primary (parent) to secondary metabolite concentration in urine: −0.083
- Urine concentration (median) [2]: 1509 ng/mL

Structure (SMILES): Cc1nnc2n1-c1ccc(Cl)cc1C(c1ccccc1)=NC2 [alprazolam]
- μA, population mean of ln(PMET/SMET), ratio of primary (parent) to secondary metabolite concentration in urine: −0.463
- Urine concentration (median) [4]: 118 ng/mL
